The values that follow are results of earlier work, collected in US20120076863A1, “NANOPARTICULATE STABILIZED ANTI-HYPERTENSIVE COMPOSITIONS” (Elan Pharma International Ltd., priority 2005, published 2012).

Structures can show the parent of a compound that is named as a salt.

The conditions of series [1]: active metabolite of temocapril.

For `CCOC(=O)[C@H](CCc1ccccc1)N[C@H]1CS[C@H](c2cccs2)CN(CC(=O)O)C1=O` [Temocapril hydrochloride, α-{(2S,6R)-6-[(1S)-1-ethoxy-carbonyl-3-phenyl-propyl]amino-5-oxo-2-(2-thienyl)perhydro-1,4-thiazepin-4yl}acetic acid hydrochloride], the solubility in water entry is given as “only slightly soluble”.

With `O=C(O)CN1C[C@@H](c2cccs2)SC[C@H](N[C@@H](CCc2ccccc2)C(=O)O)C1=O` [temocaprilat], the excretion route result in series [1] is reported as “excreted predominantly in bile”.
